Laboratory results: ChEMBL document CHEMBL3045474, “Natural products-based insecticidal agents 6. Design, semisynthesis, and insecticidal activity of novel monomethyl phthalate derivatives of podophyllotoxin against Mythimna separata Walker in vivo” (2010)
Calls of active or inactive are those of the source. The rule behind the calls is not given here.

Experiments:
Mythimna separata [1] = test: In vivo insecticidal activity against pre-third-instar larval stage of Mythimna separata (Oriental armyworm) in corn leaves assessed as corrected mortality rate at 1 mg/ml treated for 3 secs before larval infestation on corn leaves measured after 33 days by leaf-dipping method; type: functional; details: 792 h
Mythimna separata [2] = test: In vivo insecticidal activity against pre-third-instar larval stage of Mythimna separata (Oriental armyworm) in corn leaves assessed as induction of loss of body liquid at 1 mg/ml treated for 3 secs before larval infestation on corn leaves measured after 48 hr by leaf-dipping method; type: functional, organism-based
Mythimna separata [3] = test: In vivo insecticidal activity against pre-third-instar larval stage of Mythimna separata (Oriental armyworm) in corn leaves assessed as inhibition of larval pupation at 1 mg/ml treated for 3 secs before larval infestation on corn leaves by leaf-dipping method; type: functional, organism-based
Mythimna separata [4] = test: In vivo insecticidal activity against pre-third-instar larval stage of Mythimna separata (Oriental armyworm) in corn leaves assessed as induction of larval immobility at 1 mg/ml treated for 3 secs before larval infestation on corn leaves measured after 48 hr by leaf-dipping method; type: functional, organism-based
Mythimna separata [5] = test: In vivo insecticidal activity against pre-third-instar larval stage of Mythimna separata (Oriental armyworm) in corn leaves assessed as corrected mortality rate at 1 mg/ml treated for 3 secs before larval infestation on corn leaves measured after 10 days by leaf-dipping method; type: functional; details: 240 h
Mythimna separata [6] = test: In vivo insecticidal activity against pre-third-instar larval stage of Mythimna separata (Oriental armyworm) in corn leaves assessed as reduction in larval movement at 1 mg/ml treated for 3 secs before larval infestation on corn leaves measured after 24 hr by leaf-dipping method; type: functional, organism-based
Mythimna separata [7] = test: In vivo insecticidal activity against pre-third-instar larval stage of Mythimna separata (Oriental armyworm) in corn leaves assessed as inhibition of adult emergence at 1 mg/ml treated for 3 secs before larval infestation on corn leaves by leaf-dipping method; type: functional, organism-based
Mythimna separata [8] = test: In vivo insecticidal activity against pre-third-instar larval stage of Mythimna separata (Oriental armyworm) in corn leaves assessed as corrected mortality rate at 1 mg/ml treated for 3 secs before larval infestation on corn leaves measured after 20 days by leaf-dipping method; type: functional; details: 480 h
Mythimna separata [9] = test: In vivo insecticidal activity against pre-third-instar larval stage of Mythimna separata (Oriental armyworm) in corn leaves assessed as induction of molting to abnormal pupae at 1 mg/ml treated for 3 secs before larval infestation on corn leaves by leaf-dipping method; type: functional, organism-based

SMILES	mortality at 1000 µg/mL (Mythimna separata [1]) [%]	Activity (Mythimna separata [2])	Activity (Mythimna separata [3])	Activity (Mythimna separata [4])	mortality at 1000 µg/mL (Mythimna separata [5]) [%]	Activity (Mythimna separata [6])	Activity (Mythimna separata [7])	mortality at 1000 µg/mL (Mythimna separata [8]) [%]	Activity (Mythimna separata [9])
COC(=O)c1ccccc1C(=O)N[C@@H]1c2cc3c(cc2[C@@H](c2cc(OC)c(OC)c(OC)c2)[C@H]2C(=O)OC[C@@H]21)OCO3	42.8	Active	Active	Active	6.6	Active	Active	10.3	Active
COC(=O)c1cccc([N+](=O)[O-])c1C(=O)O[C@H]1c2cc3c(cc2[C@@H](c2cc(OC)c(OC)c(OC)c2)[C@H]2C(=O)OC[C@@H]21)OCO3	21.4	Active	Active	Active	6.6	Active	Active	6.9	Active
COC(=O)c1ccccc1C(=O)Oc1c(OC)cc([C@@H]2c3cc4c(cc3[C@@H](OC(=O)c3c(C(=O)OC)cccc3[N+](=O)[O-])[C@H]3COC(=O)[C@H]23)OCO4)cc1OC	28.5	Active	Active	Active	16.6	Active	Active	20.6	Active
COC(=O)c1cccc([N+](=O)[O-])c1C(=O)O[C@H]1c2cc3c(cc2[C@@H](c2cc(OC)c(OC)c(OC)c2)[C@@]2(Cl)C(=O)OC[C@H]12)OCO3	46.4	Active	Active	Active	30	Active	Active	41.3	Active
CC(=O)O[C@@H]1C[C@H](O)[C@@]23CO[C@@H](O)[C@]1(C)[C@@H]2C[C@@H](O)[C@]1(C)[C@@H]3C(=O)[C@H](OC(C)=O)[C@@]2(C)[C@H](c3ccoc3)C[C@H]3O[C@]321 [TOOSENDANIN]	50				30			31	
COC(=O)c1ccccc1C(=O)O[C@H]1c2cc3c(cc2[C@@H](c2cc(OC)c(OC)c(OC)c2)[C@@]2(Cl)C(=O)OC[C@H]12)OCO3	53.5	Active	Active	Active	16.6	Active	Active	31	Active
COC(=O)c1ccccc1C(=O)O[C@H]1c2cc3c(cc2[C@@H](c2cc(OC)c(OC)c(OC)c2)[C@@H]2C(=O)OC[C@@H]21)OCO3	17.8	Active	Active	Active	10	Active	Active	10.3	Active
COc1cc([C@@H]2c3cc4c(cc3[C@H](O)[C@H]3COC(=O)[C@H]23)OCO4)cc(OC)c1OC [PODOFILOX]	35.7				16.6			20.6	
COC(=O)c1ccccc1C(=O)O[C@H]1c2cc3c(cc2[C@@H](c2cc(OC)c(OC)c(OC)c2)[C@H]2C(=O)OC[C@@H]21)OCO3	35.7	Active	Active	Active	16.6	Active	Active	24.1	Active
COC(=O)c1ccccc1C(=O)Oc1c(OC)cc([C@@H]2c3cc4c(cc3[C@@H](OC(=O)c3ccccc3C(=O)OC)[C@H]3COC(=O)[C@H]23)OCO4)cc1OC	21.4	Active	Active	Active	16.6	Active	Active	17.2	Active
COC(=O)c1ccccc1C(=O)O[C@@H]1c2cc3c(cc2[C@@H](c2cc(OC)c(OC)c(OC)c2)[C@H]2C(=O)OC[C@@H]21)OCO3	38.5	Active	Active	Active	10	Active	Active	20.6	Active
COC(=O)c1cccc([N+](=O)[O-])c1C(=O)O[C@@H]1c2cc3c(cc2[C@@H](c2cc(OC)c(OC)c(OC)c2)[C@H]2C(=O)OC[C@@H]21)OCO3	42.8	Active	Active	Active	10	Active	Active	17.2	Active
COC(=O)c1cccc([N+](=O)[O-])c1C(=O)O[C@H]1c2cc3c(cc2[C@@H](c2cc(OC)c(OC)c(OC)c2)[C@@H]2C(=O)OC[C@@H]21)OCO3	14.2	Active	Active	Active	13.3	Active	Active	13.7	Active
COC(=O)c1cccc([N+](=O)[O-])c1C(=O)N[C@@H]1c2cc3c(cc2[C@@H](c2cc(OC)c(OC)c(OC)c2)[C@H]2C(=O)OC[C@@H]21)OCO3	35.7	Active	Active	Active	10	Active	Active	20.6	Active
